Activity calls are given as the source filed them.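 Rule for the calls: active = fitted curve reaching a 35% signal drop at a concentration under 10 µM, within twice the top tested dose; inconclusive = no clear call, values can overlap the other calls; inactive = the rest, including activity opposite to the expected direction.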

The first experiment deals with P. falciparum HB3 in RBCs, SYBR Green DNA fluorescence. The experiment can be described thus: antimalarial activity against intraerythrocytic HB3 parasites – HB3 strain, red blood cells, SYBR Green, cherry-picked, dose response (AID 652041).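 Note: parasites exposed to compound for 72 hours before the DNA read.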
Settings: not given
As for `Cc1nc2ccc(C(C(F)(F)F)(C(F)(F)F)C(F)(F)F)cc2[nH]1`, the AC35 was 11.2 µM.

With `Cc1ccc(O)c(-c2cc(-c3ccccc3C)[nH]n2)c1`, the AC35 was 6.3 µM.

In the case of `O=[N+]([O-])c1ccc2c(OCc3nnc(-c4ccccc4Br)o3)ncnc2c1`, the AC35 was 21.8 µM.

Consider `COC(=O)C1=NN(C(=O)c2cccc(Br)c2)C(O)(c2ccc(Cl)cc2)C1` (configuration not stated), for which the AC35 was 31 µM.

For the compound `Cc1ccc2c(C)c3ccc4ccccc4c3c[n+]2c1`, the AC35 was 0.0701 µM.

`CCC(Oc1ccc(Br)cc1Cl)C(=O)Nc1nnc(C2CC2)s1` (configuration not stated): the AC35 is 33.3 µM.

As for `CCn1c(CNc2ccc(Cl)cc2)nnc1SCc1ccc(Cl)cc1`, the AC35 was 38.6 µM.

For the compound `C[n+]1c2cc(N)ccc2cc2ccc(N)cc21`, the AC35 was 0.0524 µM.

`CC(=O)C1=C(c2cccc([N+](=O)[O-])c2)N(C(C)=O)n2c(C)nnc2S1`: the AC35 is 0.59 µM.

For `CCCCCCCn1c(=O)c(C(=O)OC)c(N)c2ccccc21`, the AC35 was 4.22 µM.

As to `Fc1ccc(CCNC(=S)Nc2ccc(F)c(Cl)c2)cc1`, the AC35 is 14.1 µM.

With `Cc1cccc(N2CCN(C(=O)C3COc4ccccc4O3)CC2)c1C` (configuration not stated), the AC35 is 38.9 µM.

Regarding `CC(C)(C)C(O)C(Cc1ccccc1Cl)n1cncn1` (configuration not stated), the AC35 was 39.3 µM.

On to `Clc1ccccc1C(c1ccccc1)(c1ccccc1)n1ccnc1`, for which the AC35 was 0.645 µM.

On to `COC(=O)C1=C(C)NC(C)=C(C(=O)OCC(C)C)C1c1ccccc1[N+](=O)[O-]` (configuration not stated), for which the AC35 is 4.63 µM.

In the case of `CCC(C)n1ncn(-c2ccc(N3CCN(c4ccc(OCC5COC(Cn6cncn6)(c6ccc(Cl)cc6Cl)O5)cc4)CC3)cc2)c1=O` (configuration not stated), the AC35 was 3.81 µM.

For the compound `Oc1ccc(Br)cc1/C=N/Nc1ccccn1`, the AC35 was 1.61 µM.

For the compound `CC(C)C(=O)NC(c1cccc([N+](=O)[O-])c1)c1ccc2cccnc2c1O` (configuration not stated), the AC35 was 0.826 µM.

For `C=CCN(CC=C)C(=S)NC(=O)c1ccc(C)c(Br)c1`, the AC35 was 9.72 µM.

As for `O=C(c1ccccc1)N1C(=O)C(c2ccccc2)Oc2ccccc21` (configuration not stated), the AC35 was 37.1 µM.

`Cc1c(Cc2ccccc2)c(NCCN(C)C)n2c(nc3ccccc32)c1C#N`: the AC35 was 6.66 µM.

On to `CCCCCCCCCCOC(=O)Cn1c(COc2ccccc2OC)[n+](C)c2ccccc21`, for which the AC35 is 0.346 µM.

On to `Cc1ccc(S(=O)(=O)Nc2ccc(O)c3cccnc23)cc1`, for which the AC35 is 6.27 µM.

In the case of `CC(C)N1CCN(c2ccc(OC[C@H]3CO[C@](Cn4cncn4)(c4ccc(Cl)cc4Cl)O3)cc2)CC1`, the AC35 is 7.37 µM.

As for `CC(=O)NC(c1ccc(C)cc1)c1cc([N+](=O)[O-])c2cccnc2c1O` (configuration not stated), the AC35 is 11.2 µM.

Turning to `CCCCOC(=O)/C=C/c1ccc(OC(=O)OC)c(OC(=O)OC)c1`, the AC35 is 11 µM.

Turning to `Cc1ccc(-c2c3c(nc4sc(C(N)=O)c(N)c24)CCCC3)o1`, the AC35 is 37.6 µM.

In the case of `Cc1nc(SCc2ccc(OCCC(C)C)cc2)n[nH]1`, the AC35 is 13.1 µM.

`Cc1ccc(NC(=S)c2nc3ccccc3[nH]2)c(C)c1`: the AC35 was 5.68 µM.

In the case of `Cc1ccccc1C(=O)NNC(=S)NC(=O)c1ccc(Cl)cc1Cl`, the AC35 was 34.3 µM.

Turning to `O=C(c1ccc(-c2ccccc2)cc1)C1CCCN(C(=O)c2cncs2)C1` (configuration not stated), the AC35 is 7.38 µM.

Take `O=C(COc1ccc([N+](=O)[O-])cc1)Nc1nc(-c2ccccn2)cs1`: the AC35 was 6.38 µM.

Take `Cc1ccccc1Oc1nc(-c2ccccn2)nc2ccccc12`: the AC35 is 4.4 µM.

`Cc1c(C(=O)O)cccc1-c1ccc(/C=N/Nc2ccc(Br)cc2)o1`: the AC35 is 21.3 µM.

On to `CC(C)=CCc1c(O)ccc(C(=O)Cc2ccccc2)c1O`, for which the AC35 is 11 µM.

`Oc1c(CN2CCCC2)cc(COCc2ccccc2)c2cccnc12`: the AC35 was 7.31 µM.

With `CCCCC(=O)NC(=S)NNC(=O)CCc1ccccc1`, the AC35 was 23 µM.

System in the next experiment: not listed separately
The experiment is described as above. The note with it: P. falciparum HB3 in RBCs, SYBR Green DNA fluorescence; at 50 µM (top of the series).
Turning to `COc1cccc(C(C)=C2SC(=S)NC2=O)c1`, the activity change, negative = inhibition was -7.61% (inactive).

Take `CC1=NN(C(N)=S)C(=O)C1N=Nc1cccc(Cl)c1C` (configuration not stated): the activity change, negative = inhibition was -12.3% (inactive).

As to `CCCOc1ccc2ccccc2c1/C=C1\SC(=O)NC1=O`, the activity change, negative = inhibition was -14.8% (inactive).

For `CC12CCC(O)CC1=CCC1C2CCC2(C)C3=NN=CC3CC12` (configuration not stated), the activity change, negative = inhibition was -17.5% (inactive).

Turning to `CC1CCN(c2ccc3c(c2)S(=O)(=O)c2ccccc2C3=O)CC1`, the activity change, negative = inhibition was -1.13% (inactive).

As to `CCn1c(CNc2ccc(Cl)cc2)nnc1SCc1ccccc1`, the activity change, negative = inhibition was -25.3% (inactive).

As for `Nc1nc2sc3c(c2c(=O)s1)CCCC3`, the activity change, negative = inhibition is -20.8% (inactive).

For the compound `COc1ccc(N(C(=O)c2ccncc2)S(=O)(=O)c2ccccc2)cc1`, the activity change, negative = inhibition is -28% (inactive).

For `c1ccc(-c2ccc(OCCCn3cncn3)cc2)cc1`, the activity change, negative = inhibition is -10.3% (inactive).

In the case of `CCCn1c2ccccc2c2cc(C(=O)O)ccc21`, the activity change, negative = inhibition is -6.37% (inactive).

For the compound `COc1cc2c(c(OC)c1OC)-c1ccc(O)c(=O)cc1[C@@H](NC(C)=O)CC2`, the activity change, negative = inhibition was -18.5% (inactive).

Take `CCCSC(=S)c1c(C)[nH]n(-c2ccccc2)c1=O`: the activity change, negative = inhibition was -14.2% (inactive).

`O=C1N(c2ccc(Cl)cc2)C(c2cccnc2)N2CCCN12` (configuration not stated): the activity change, negative = inhibition is -10.4% (inactive).

In the case of `Clc1ccc(-c2n[nH]c3c2CCC3)cc1Cl`, the activity change, negative = inhibition was -19.3% (inactive).

In the case of `Cc1nc2ccc(C(=O)NCc3ccc4c(c3)OCO4)cc2s1`, the activity change, negative = inhibition was -24.7% (inactive).

On to `CC(C)NC(=O)NC(=O)COC(=O)c1ccc([N+](=O)[O-])cc1Cl`, for which the activity change, negative = inhibition was -11.6% (inactive).

On to `CCOC(=O)c1ccc(N2C(=O)CC(N3CCC(O)(c4ccc(Cl)cc4)CC3)C2=O)cc1` (configuration not stated), for which the activity change, negative = inhibition is -5.74% (inactive).

For the compound `Cc1cc(NS(=O)(=O)c2ccc(C3CCCCC3)cc2)no1`, the activity change, negative = inhibition is 0.534% (inactive).

For the compound `O=C(O)c1c(NC(=O)N2CCCC2)sc2c1CCCC2`, the activity change, negative = inhibition was -0.929% (inactive).

As for `COC(OC)c1ccc(C#N)c(SCc2ccccc2)n1`, the activity change, negative = inhibition was -17.5% (inactive).

With `CCCCn1c(=O)c(C(=O)NCc2ccncc2)c(O)c2ccccc21`, the activity change, negative = inhibition was -14% (inactive).

With `c1ccc(Cn2cc(-c3cccnc3)cn2)cc1`, the activity change, negative = inhibition is -23.9% (inactive).

As for `Oc1c(Br)cc(-c2ccccc2)cc1Br`, the activity change, negative = inhibition is -16% (inactive).

Consider `CCOc1ccc(N/N=C(/C#N)C(N)=O)cc1`, for which the activity change, negative = inhibition was -12.5% (inactive).

As to `CC1(C)CC(=O)C(N=Nc2ccc3ncsc3c2)=C(O)C1`, the activity change, negative = inhibition was -23.1% (inactive).

Take `CC1Oc2ccccc2C=C1/C=N/Nc1ccc(C(=O)O)cc1` (configuration not stated): the activity change, negative = inhibition is -20.4% (inactive).

With `CCCOc1ccc(S(=O)(=O)n2cc(F)c(=O)[nH]c2=O)cc1`, the activity change, negative = inhibition is -21.3% (inactive).

As for `COc1ccc(N(C(=O)c2ccncc2)S(=O)(=O)c2ccc(F)cc2)cc1`, the activity change, negative = inhibition is -13.3% (inactive).

Regarding `Cc1cccc(C)c1N1C(=O)C2ON(c3ccccc3)C(c3ccncc3)C2C1=O` (configuration not stated), the activity change, negative = inhibition was -11.3% (inactive).

Consider `CC(C)CSc1n[nH]c(=S)s1`, for which the activity change, negative = inhibition is 1.38% (inactive).

The values are drawn from PubChem BioAssay AID652041 (Broad Institute, 2013).
